Laboratory results taken from paper PMC8156151 (The European Respiratory Journal, 2021).
Where two headings read alike, the source gives them in different places.

Columns and labels:
Type in all cases: in vivo, human
[1] = Plasma pharmacokinetics, part 2 (IPF patients); details: for Cmin (plasma concentration at 24 h post-dose): BLQ: below limit of quantification (0.5 ng·mL^−1); for half-life / Cmax / concentration at 24 h / AUC(0-inf): human, plasma, inhaled; for concentration at 24 h: read-out: Cmin (plasma concentration at 24 h post-dose)
Experimental: Full plasma PK profiles were conducted on days 1 (first day of dosing) and 14 (last day of dosing). […] Standard noncompartmental methods were applied to derive PK parameters using Phoenix WinNonlin version 6.3 (Certara, Sheffield, UK). […] Drug compartment measurements in BAL alveolar macrophages and fluid were determined as described previously.

MMP-1 = experiment: Plasma biomarker MMP-1; details: for MMP-1 raw data, Mean (SD) / MMP-1 least square means % baseline±SEM: IPF patients
Experimental: (§1) All patients, investigators, sites and study sponsor personnel were blinded to the study group assignments throughout the study. Patients underwent study-specific assessments on days 2, 3, 7, 14 and 15, and a post-study assessment was carried out 26–30 days after the last day of the study period. Assessments included vital signs (supine blood pressure, pulse, oxygen saturation, oral temperature and respiratory rate), spirometry, 12-lead ECG, physical examination, laboratory safety screen (haematology, biochemistry, urinalysis and urinary drugs of abuse screen) and blood sampling for PK measurements. All adverse events and concomitant medications were recorded from the time of the screening visit until the post-study follow-up visit. BAL was performed at day −1 (24 h before the first dose) and at day 14 (2 h after the last dose). The BAL procedure was performed as per international guidelines. Briefly, 240 mL of 0.9% saline at room temperature was instilled in 40 mL aliquots into the right middle lobe and aspirated by suction after each aliquot.
(§2) BAL cells were separated from fluid by centrifugation, and cells were collected, stained with antibodies (supplementary material) and then fixed before analysis using a LSR Fortessa flow cytometer (Becton Dickinson, Franklin Lakes, NJ, USA). Data were analysed using FlowJo software (Tree Star, Ashland, OR, USA). Macrophages were identified as having high side scatter properties and human leukocyte antigen-DR positivity. Gal-3 expression (mean fluorescence intensity) was determined from the macrophage gate (supplementary figures S1 and S2). […] Samples were analysed by magnetic Luminex assay (R&D Systems, Minneapolis, MN, USA) or ELISA.
(§3) For part 2 of the study, placebos were combined from the three dose-specific cohorts into a pooled control group (n=9). For alveolar macrophage Gal-3 expression and the plasma biomarkers, ANCOVA was performed for percentage of baseline ((day 14/day 1)×100). The ANCOVA model included effects for treatment group and baseline (day 1) value. […] An additional analysis including dose as a continuous covariate was also performed. The Pearson correlation coefficient (r) and associated p-value were calculated for percentage of baseline and day 14 values between plasma biomarkers and alveolar macrophage Gal-3 expression. […] The analysis is exploratory and there was no pre-planned adjustment for multiple testing; the study was not powered for this. Alveolar macrophage Gal-3 expression was considered the primary exploratory analysis with the pre-selected biomarkers secondary. A Bonferroni correction for multiple testing of the secondary end-points comparing the 10 mg group with placebo gives a critical value of 0.0063. Data are presented as the difference in least square means with 95% confidence interval and p-value unless otherwise stated. All analyses were performed using SAS version 9.4 (SAS Institute, Cary, NC, USA). […]

PDGF-BB = experiment: Plasma biomarker PDGF-BB (Luminex/ELISA); details: for PDGF-BB raw data, Mean (SD) / PDGF-BB least square means % baseline±SEM: IPF patients
Experimental: as §1, §2, §3

PAI-1 = experiment: Plasma biomarker PAI-1; details: 10 mg vs placebo, ANCOVA
Experimental: as §1, §2, §3

[2] = IPF patients, after 14 days of dosing
[3] = 3 mg, IPF patients, Day 1, 3 mg once daily, mean±SD
[4] = 3 mg, IPF patients, Day 14, 3 mg once daily, mean±SD
[5] = 10 mg, IPF patients, Day 1, 10 mg once daily, mean±SD
[6] = 10 mg, IPF patients, Day 14, 10 mg once daily, mean±SD

SMILES: OC[C@H]1O[C@@H](S[C@@H]2O[C@H](CO)[C@H](O)[C@H](n3cc(-c4cccc(F)c4)nn3)[C@H]2O)[C@H](O)[C@@H](n2cc(-c3cccc(F)c3)nn2)[C@H]1O [TD139]
- Cmin (plasma concentration at 24 h post-dose) ([1]; IPF patients, Day 1, 0.3 mg once daily): BLQ
- Cmin (plasma concentration at 24 h post-dose) ([1]; IPF patients, Day 14, 0.3 mg once daily): BLQ
- accumulation [1, 2]: ~50%
- increase in AUC0−inf, 10 mg values [1, 2]: 8 fold
- increase in Cmax, 10 mg values [1, 2]: 5 fold
- expected accumulation ([1]; from T1/2 of ∼8 h and dosing interval of 24 h): ~14%
- half-life ([1]; inhaled or intranasal, overall value, read-out: plasma half-life (T1/2) (converted)): 8 h
- Cmax ([1]; 0.3 mg, IPF patients, Day 1, 0.3 mg once daily, mean±SD): 0.55 ± 0.02 ng/mL
- Cmax ([1]; 0.3 mg, IPF patients, Day 14, 0.3 mg once daily, mean±SD): 0.86 ± 0.25 ng/mL
- concentration at 24 h [1, 3]: 1.06 ± 0.43 ng/mL
- concentration at 24 h [1, 4]: 1.48 ± 0.51 ng/mL
- AUC(0-inf) [1, 3]: 69 ± 50 ng·h/mL
- Cmax [1, 3]: 10.6 ± 11.1 ng/mL
- half-life ([1]; 3 mg, IPF patients, Day 1, 3 mg once daily, mean±SD, read-out: T1/2 (converted)): 6.36 ± 2.09 h
- AUC(0-inf) [1, 4]: 149 ± 47 ng·h/mL
- Cmax [1, 4]: 16.5 ± 8.34 ng/mL
- half-life ([1]; 3 mg, IPF patients, Day 14, 3 mg once daily, mean±SD, read-out: T1/2 (converted)): 6.91 ± 1.4 h
- concentration at 24 h [1, 5]: 12.9 ± 7.88 ng/mL
- concentration at 24 h [1, 6]: 14.7 ± 8.64 ng/mL
- AUC(0-inf) [1, 5]: 921 ± 479 ng·h/mL
- Cmax [1, 5]: 56.3 ± 19.3 ng/mL
- half-life ([1]; 10 mg, IPF patients, Day 1, 10 mg once daily, mean±SD, read-out: T1/2 (converted)): 9.69 ± 1.7 h
- AUC(0-inf) [1, 6]: 1150 ± 462 ng·h/mL
- Cmax [1, 6]: 82.8 ± 11.8 ng/mL
- half-life ([1]; 10 mg, IPF patients, Day 14, 10 mg once daily, mean±SD, read-out: T1/2 (converted)): 8.2 ± 2.26 h
- MMP-1 difference in least square means % baseline (95% CI) (MMP-1; 10 mg vs placebo, ANCOVA): −102.1 (−251.4–47.3) % baseline
- MMP-1 raw data, Mean (SD) (MMP-1; Day 14, 0.3 mg): 535.1 (449.22) pg/ml
- MMP-1 raw data, Mean (SD) (MMP-1; Day 14, 3 mg): 1494.4 (647.67) pg/ml
- MMP-1 raw data, Mean (SD) (MMP-1; Day 14, 10 mg): 537.5 (257.55) pg/ml
- MMP-1 least square means % baseline±SEM (MMP-1; day 14, 0.3 mg once daily): 67.3±56.3 % baseline
- MMP-1 least square means % baseline±SEM (MMP-1; day 14, 3 mg once daily): 107.1±59.1 % baseline
- MMP-1 least square means % baseline±SEM (MMP-1; day 14, 10 mg once daily): 62.1±58.1 % baseline
- PDGF-BB difference in least square means % baseline (95% CI) (PDGF-BB; 10 mg vs placebo, ANCOVA): −239.5 (−384.8– −94.2) % baseline
- PDGF-BB raw data, Mean (SD) (PDGF-BB; Day 14, 0.3 mg): 1519 (1034.92) pg/ml
- PDGF-BB raw data, Mean (SD) (PDGF-BB; Day 14, 3 mg): 2201.9 (2935.52) pg/ml
- PDGF-BB raw data, Mean (SD) (PDGF-BB; Day 14, 10 mg): 1131.4 (1190.78) pg/ml
- PDGF-BB least square means % baseline±SEM (PDGF-BB; day 14, 0.3 mg once daily): 90.5±55.2 % baseline
- PDGF-BB least square means % baseline±SEM (PDGF-BB; day 14, 3 mg once daily): 103.7±54.1 % baseline
- PDGF-BB least square means % baseline±SEM (PDGF-BB; day 14, 10 mg once daily): 35.7±54.2 % baseline
- PAI-1 difference in least square means % baseline (95% CI) (PAI-1): −151.8 (−265.3– −38.2) % baseline
